According to patent US20200207820A1, “ANTIVIRAL, ANTIFIBROTIC AND ANTICANCER ACTIVITIES OF ROYAL-JELLY PROTEINS” (priority 2017, published 2020):
“Also recorded” adds a separate entry of the source.

Tests used:
HCV [1] = test: Qualitative screening for HCV (+) strand RNA by RT-nested PCR in infected PBMCs and HepG-2 cells; assay type: cell-based, Hepatitis C virus; conditions: HCV-infected PBMCs and HepG-2 cells, 72 h; RJ 0.2 and 1 mg, PFs 1 mg, MRJPs 250 μg, SOV 4 mg (PBMCs only)
Procedure: (§1) PBMCs were obtained by Ficoll-Hypaque density gradient centrifugation method as described previously. In brief, the blood samples from healthy volunteers were diluted with equal volume of PBS, carefully layered on Ficoll-Hypaque, and centrifuged at 2000 rpm, 25° C. for 30 min. Then the undisturbed PBMCs layer (interface) was carefully transferred out, washed with 40 ml RPMI-1640 medium, and centrifuged at 1650 rpm for 10 min. Finally, the supernatant was removed and the cells were suspended in 5 ml of RPMI-1640 medium containing 10% FBS and counted using trypan blue stain.
(§2) HepG-2 cells were grown in RPMI-1640 medium (HyClone) supplemented with 10% heat-inactivated FBS.
(§3) Serum samples were obtained from HCV and HBV infected […] patients […] after agreement by the ethics committee. The HCV and HBV samples were positive for genotype 4a and D, respectively. The infected patients were neither under treatment prior to the study nor co-infected. The sera were kept at −80° C. until use. […]
After cellular infection, the infected medium was replaced with a fresh RPMI-1640 medium containing 10% FBS for positive control wells. […] The HCV (+) strand was detected by reverse transcription-nested polymerase chain reaction (RT-nested PCR) using the Ready-To-Go RT-PCR beads (Amersham Pharmacia Biotech, Piscataway, N.J., USA) following the instructions. […]

HCV [2] = test: Quantitative analysis of intracellular HCV-RNA (Cobas Ampliprep TaqMan); assay type: cell-based, Hepatitis C virus; conditions: PBMCs and HepG-2 cells, 72 h; SOV in PBMCs only
Procedure: as §1, §2, §3
(§4) SOV at the concentration of 4 mg was incubated only with HCV or HBV-infected PBMCs due to its potent anti-cancer effect. […] Then the HCV-RNA and HBV-DNA within these cells were quantified using the fully automated Cobas Ampliprep TaqMan Analyzer (CAP-CTM). This technique is one of the most recent techniques that used for diagnosis of viral hepatitis quantitatively. […]

HBV = test: Quantitative analysis of intracellular HBV-DNA (Cobas Ampliprep TaqMan); assay type: cell-based, hepatitis B virus; conditions: PBMCs and HepG-2 cells, 72 h; SOV in PBMCs only
Procedure: as §1, §2, §3, §4

hepatocytes = test: In vitro assessment of liver fibrosis: CCl4-induced fibrosis in hepatocytes; assay type: cell-based, Albino rats
Procedure: Hepatocytes were isolated from the liver of two male Albino rats 1 week of age. Rats were anesthetized, then liver was dissected, washed and incubated for 15 min with 10× penicillin and streptomycin. Afterward, the liver was washed using PBS, minced and incubated for 30 min with 3 U/mL of collagenase I with gentle shaking to obtain the cell suspension. The solution was centrifuged for […] at 1000 rpm and the pellet (hepatocytes) was washed, suspended in William's E medium containing 10% FBS and incubated at […] in CO2 incubator. After 90% cell confluent, hepatocytes were passaged with trypsin-EDTA. Then cells were stained with trypan blue, checked for viability and counted using the phase contrast inverted microscope (Olympus IX 81, Tokyo, Japan).
For induction of fibrosis, hepatocytes were incubated with various concentrations (0.13-1.30 mM) of CCl4 for 48 h. At the end of the incubation period, the cell viability was assessed and the IC50 value (half maximal inhibitory concentration of CCl4 to the hepatocytes growth) was calculated by the GraphPad Instat software version 3. This value was used for in vitro induction of fibrosis in hepatocytes (FM). After induction, Fb1 was incubated with the safe concentration of each of the studied compounds and incubated for 72 h at 5% CO2 and 37° C. The normal cells and the untreated Fb1 (Fb) were involved as negative and positive control cells, respectively.
At the end of the incubation period, media were collected and used in the assessment of the hepatocyte damage indices. However, cells were examined morphologically for identification of apoptosis.
Alanine and aspartate aminotransferases (ALT and AST), and albumin were determined using available commercial kits (RAM, Egypt). TNF-α (ELISA kit, RayBiotech, USA) and collagen IV (ELISA kit, Kamiya Biomedical) were determined following the manufacturer's instructions. Nitric oxide (NO) level was assessed by measurement of the nitrite using the Griess reaction, which produced colored azo dye with a maximum absorbance at 490 nm. Hydroxyproline content in the medium was measured using chloramines T and […] solutions. The absorbance of the produced color was read spectrophotometrically at 560 nm and the concentration was determined from the hydroxyproline calibration curve.
Apoptosis was investigated by double staining cells after washing with PBS with 100 μg/mL of ethidium bromide (EB) and acridine orange (AO) as described previously and then visualized under the fluorescent phase contrast microscope.

HepG-2 cell line = test: Anti-cancer assay (MTT); assay type: cell-based, human; conditions: HepG-2 cells, 72 h
Procedure: The cytotoxic effect of RJ and its isolated PFs against HepG-2 cell line were evaluated. The cell viability was determined by MTT assay to investigate the cytotoxicity. Cells (3×10^3/well) were seeded in 96-well plate and left to attach for overnight. Serial concentrations (6.25-100 μM) of each of the tested compounds were added to the attached cells and incubated for 72 h at 37° C. in an atmosphere of 5% CO2 and the untreated cells were included as negative control. Then, 20 μl of MTT solution (0.5 mg/ml) was added to each well and the plate was incubated at 37° C. and 5% CO2 for 4 h. The medium with MTT was replaced by 150 μl of DMSO and the absorbance of the produced color was read at 570 nm by the microplate reader. The concentration of each of the studied compounds that inhibit the cancer cell growth by 50% (IC50 values) was determined from the dose-response curves. Additionally, the morphological changes of the tumor cells were examined using the phase-contrast microscope.

[3] = Acute toxicity (Karber's method); assay type: in vivo, male Albino rats
Procedure: Karber's method was used to study the acute toxicity effect of RJ in comparison with SOV using male Albino rats and the median lethal dosage (LD50) was calculated.
Fifty-five male Albino rats (80-120 g) were purchased from MISR University for Science and Technology (animal welfare assurance number A5865-01). Animals were housed in metal cages and allowed free access to a standard commercial diet and tap water. Rats were kept under conventional conditions of temperature, humidity and twelve hours light/dark cycle. All rats were acclimatized to the laboratory environment for one week prior to handling and were observed daily for abnormal signs. Handling of animals complied with the international guide for the care and use of laboratory animals (National Research Council, 1996).
Animals were divided into eleven groups (five animals in each) starting from group I to group X beside the control (received only water as the vehicle). Groups from (I) to (V) were administered RJ intraperitoneally, while groups from (VI) to (X) were orally received SOV using the gavage tube. RJ and SOV were given to the animals at various doses (140, 350, 700, 2500 and 5000 mg/kg bw), one dose for each group of animals (group I and VI received the lowest dose).
All animals were left for 24 h after RJ or SOV administration, and then the number of mortality in each group was recorded for calculation of the LD50 value. Also, the weights of animals in each group were recorded before sacrificing by decapitation. Blood samples were collected in heparin tubes by cardiac puncture for assessment of the erythrocytes, hematocrit (HCT), hematimetric indices, hemoglobin (Hb), platelets, and leukocytes (full and differential counts). In addition, ALT and AST, total proteins, albumin, urea, creatinine, sodium, potassium, triglycerides (TG) and cholesterol were determined using available commercial kits (RAM, Egypt). The vital organs including liver, lung, kidney, and spleen were carefully excised, weighed and examined.

[4] = SOV oral 2500 and 5000 mg/kg bw

CC(C)OC(=O)[C@H](C)N[P@](=O)(OC[C@H]1O[C@@H](n2ccc(=O)[nH]c2=O)[C@](C)(F)[C@@H]1O)Oc1ccccc1 [SOV, Sofosbuvir]
anti-HCV effect (HCV (+) strand RNA, RT-nested PCR) (HCV [1]): anti-HCV effect | efficacy against HCV (intracellular HCV) (HCV [2]): less anti-HCV | efficacy against HBV / activity of HBV (intracellular HBV) (HBV): increases the activity of HBV | collagen and hydroxyproline levels (hepatocytes; CCl4-induced fibrosis in hepatocytes (Fb1)): suppressive effect | antifibrotic / therapeutic effect overall (hepatocytes; CCl4-induced fibrosis in hepatocytes, compared with SM and SOV): less antifibrotic activities | inflammatory mediators' level (NO and TNF-α) (hepatocytes; fibrotic cells (Fb1)): anti-inflammatory effect | hepatocytes morphology / apoptosis (acridine orange/ethidium bromide staining) (hepatocytes; fibrotic hepatocytes (Fb1), 72 h treatment, 200 μg/mL): less potency | cytotoxic (anticancer) effect (HepG-2 cell line): potent activity | cytotoxic (anticancer) effect (HepG-2 cell line; listed as Sovaldi): more potent anticancer effect than the RJ proteins | body weights ([3]; 24 h, all doses, versus control group): didn't cause any significant change; also recorded: no significant change | hematological parameters ([3]; 24 h after administration): Slight changes | serum urea level ([3]; SOV 350-5000 mg/kg bw): significant elevation | potassium level ([3]; SOV 2500, 5000 mg/kg bw): depleted | serum sodium level ([3]; SOV 2500, 5000 mg/kg bw): elevated | ALT activity ([3]; SOV 2500 and 5000 mg/kg bw): didn't affect | activity of AST ([3]; SOV 2500 and 5000 mg/kg bw): significantly elevated | serum level of albumin ([3]; SOV 2500 and 5000 mg/kg bw): significantly reduce | total proteins level ([3]; SOV 2500 and 5000 mg/kg bw): didn't affect | TG level ([3]; SOV nearly at all doses): significantly increased | cholesterol level ([3]; SOV nearly at all doses): significantly increased | % organ-body weight ratio, spleen ([3]; SOV oral 350 to 5000 mg/kg bw): enlargement | % organ-body weight ratio, liver [3, 4]: significant enlargement | % organ-body weight ratio, lung [3, 4]: significant enlargement | % organ-body weight ratio, kidney ([3]; SOV oral all given doses (140-5000 mg/kg bw)): significant enlargement | mortality ([3]; after 24 h, all studied doses (140-5000 mg/kg bw), RJ intraperitoneal, SOV oral): no mortality | toxic dose ([3]; rats, all the studied doses): ≥ 140 mg/kg | toxicity on vital organs ([3]; rats, liver, lung, kidney, spleen): highly toxic effects on kidney, spleen and lung and less toxicity on the liver; also recorded: highly toxic

B1: MRJP2: major royal jelly protein 2, bound protein purified from PF50 by CM-Sephadex ion-exchange chromatography (protein, UniProt O77061 18-452, looked up)
Major royal jelly protein 2: AIVRENSPRNLEKSLNVIHEWKYFDYDFGSEERRQAAIQSGEYDHTKNYPFDVDQWRDKTFVTILRYDGVPSTLNVISGKTGKGGRLLKPYPDWSFAEFKDCSKIVSAFKIAIDKFDRLWVLDSGLVNRTVPVCAPKLHVFDLKTSNHLKQIEIPHDIAVNATTGKGGLVSLAVQAIDLANTLVYMADHKGDALIVYQNADDSFHRLTSNTFDYDPRYAKMTIDGESFTLKNGICGMALSPVTNNLYYSPLASHGLYYVNTAPFMKSQFGENNVQYQGSEDILNTQSLAKAVSKNGVLFVGLVGNSAVGCWNEHQSLQRQNLEMVAQNDRTLQMIAGMKIKEELPHFVGSNKPVKDEYMLVLSNRMQKIVNDDFNFDDVNFRILGANVKELIRNTHCVNNNQNDNIQNTNNQNDNNQKNNKKNANNQKNNNQNDN
anti-HCV effect (HCV (+) strand RNA, RT-nested PCR) (HCV [1]): anti-HCV effect | inflammatory mediators' level (NO and TNF-α) (hepatocytes; fibrotic cells (Fb1)): Normalization | liver function parameters (ALT, AST, albumin) in medium (hepatocytes; fibrotic cells (Fb1)): Improvement | cytotoxic (anticancer) effect (HepG-2 cell line): nearly as potent as SOY and 5-FU
